≈ marks a conversion by molar mass, not a printed value. One block for each molecule: values may come before it.
Assays:
Type in all cases: physicochemical
[1] = Short-term physical stability of anhydrous crystal forms (40° C./75% RH, open, 1 day; XRPD)
From the text: In addition to the mesylate crystalline form I, the other anhydrous crystalline forms were stable under high humidity conditions.

[2] = Solubility analysis in biological solvents (SGF, FaSSIF, FeSSIF) and water, with pH and XRPD of residual solid
Experimental: (§1) HPLC analysis was performed by using an Agilent HPLC 1260 series instrument and the HPLC methods used for solubility and stability determinations were shown in Tables 33 and 34, respectively.

[3] = Rough solubility of free base starting material, visually evaluated by solvent addition
From the text: The rough solubility test of free base of compound A was visually evaluated by solvent addition, and the results were summarized in Table 1.

[4] = Solid state stability at 60° C. (closed) and 40° C./75% RH (open), XRPD and HPLC purity
Experimental: (closed) and 40° C./75 RH (open) for 14 days, XRPD analysis and purity analysis were performed at various points of time, and solid-state stability was evaluated.
as §1

[5] = Dynamic vapor sorption (DVS) hygroscopicity
Experimental: The water vapor sorption/desorption data of the samples were collected on a dynamic vapor sorption instrument (proUmid GmbH & Co. KG, Germany). Approximately 50-70 mg of sample was placed in a sample pan previously tared and the weight of the sample was measured accurately.

SMILES: Cc1c(C#Cc2cnc3ccc(N4CCC(O)CC4)nn23)cccc1C(=O)Nc1cc(Cl)cc(C(F)(F)F)c1 [Besylate crystalline form I]
XPRD Results after short-term physical stability [1]: unchanged

SMILES: Cc1c(C#Cc2cnc3ccc(N4CCC(O)CC4)nn23)cccc1C(=O)Nc1cc(Cl)cc(C(F)(F)F)c1 [Mesylate crystalline form I]
XPRD Results after short-term physical stability [1]: new crystalline form
stability of crystalline form under high humidity conditions [1]: unstable

SMILES: Cc1c(C#Cc2cnc3ccc(N4CCC(O)CC4)nn23)cccc1C(=O)Nc1cc(Cl)cc(C(F)(F)F)c1 [Oxalate crystalline form I]
XPRD Results after short-term physical stability [1]: unchanged

Continued, in another order:

Solubility ([2]; FeSSIF, 37 °C, pH 5, fessif, thermodynamic from solid, FeSSIF, read-out: solubility): 200 to 1900 µg/mL (≈ 0.361 to 3.43 mM)
Solubility ([2]; SGF and water): < LOD
SMILES: Cc1c(C#Cc2cnc3ccc(N4CCC(O)CC4)nn23)cccc1C(=O)Nc1cc(Cl)cc(C(F)(F)F)c1 [Compound A, N-(3-chloro-5-(trifluoromethyl)phenyl)-3-((6-(4-hydroxypiperidin-1-yl)imidazo [1,2-b]pyridazin-3-yl)ethynyl)-2-methylbenzamide]

pH in solubility analysis ([2]; FaSSIF (medium pH 6.5), 0.5 h): 6.4
pH in solubility analysis ([2]; FaSSIF (medium pH 6.5), 2 h): 6.3
pH in solubility analysis ([2]; FaSSIF (medium pH 6.5), 24 h): 6.4
XRPD of residual solid in solubility analysis ([2]; FaSSIF, 0.5 h): unchanged
Solubility ([2]; FaSSIF, 0.5 h, 37° C., target 5 mg/mL): 14 µg/mL (≈ 0.0253 mM)
Solubility ([2]; FaSSIF, 0.5 h, 37° C., target 5 mg/mL, listed as free base crystalline form I): 14 µg/mL (≈ 0.0253 mM)
Solubility ([2]; FaSSIF, 2 h, 37° C., target 5 mg/mL): 13 µg/mL (≈ 0.0235 mM)
Solubility ([2]; FaSSIF, 2 h, 37° C., target 5 mg/mL, listed as free base crystalline form I): 13 µg/mL (≈ 0.0235 mM)
XRPD of residual solid in solubility analysis ([2]; FaSSIF, 24 h): unchanged
Solubility ([2]; FaSSIF, 24 h, 37° C., target 5 mg/mL): 11 µg/mL (≈ 0.0199 mM)
pH in solubility analysis ([2]; FeSSIF (medium pH 5.0), 0.5 h): 5.0
pH in solubility analysis ([2]; FeSSIF (medium pH 5.0), 2 h): 5.0
pH in solubility analysis ([2]; FeSSIF (medium pH 5.0), 24 h): 5.1
XRPD of residual solid in solubility analysis ([2]; FeSSIF, 0.5 h): unchanged
Solubility ([2]; FeSSIF, 0.5 h, 37° C., target 5 mg/mL): 181 µg/mL (≈ 0.327 mM)
Solubility ([2]; FeSSIF, 0.5 h, 37° C., target 5 mg/mL, listed as free base crystalline form I): 181 µg/mL (≈ 0.327 mM)
Solubility ([2]; FeSSIF, 2 h, 37° C., target 5 mg/mL): 221 µg/mL (≈ 0.399 mM)
Solubility ([2]; FeSSIF, 2 h, 37° C., target 5 mg/mL, listed as free base crystalline form I): 221 µg/mL (≈ 0.399 mM)
XRPD of residual solid in solubility analysis ([2]; FeSSIF, 24 h): unchanged
Solubility ([2]; FeSSIF, 24 h, 37° C., target 5 mg/mL): 418 µg/mL (≈ 0.755 mM)
pH in solubility analysis ([2]; SGF (medium pH 1.2), 0.5 h): 1.3
pH in solubility analysis ([2]; SGF (medium pH 1.2), 2 h): 1.4
pH in solubility analysis ([2]; SGF (medium pH 1.2), 24 h): 1.2
XRPD of residual solid in solubility analysis ([2]; SGF, 0.5 h): unchanged
Solubility ([2]; SGF, 0.5 h, 37° C., target 5 mg/mL): <LOD
Solubility ([2]; SGF, 0.5 h, 37° C., target 5 mg/mL, listed as free base crystalline form I): <LOD/<LOD/
Solubility ([2]; SGF, 2 h, 37° C., target 5 mg/mL): <LOD
Solubility ([2]; SGF, 2 h, 37° C., target 5 mg/mL, listed as free base crystalline form I): <LOD/<LOD/
Solubility ([2]; SGF, 24 h, 37° C., target 5 mg/mL): <LOD
XRPD of residual solid in solubility analysis ([2]; SGF, after 2 h): amorphous
pH in solubility analysis ([2]; water (medium pH 6.6), 0.5 h): 6.6
pH in solubility analysis ([2]; water (medium pH 6.6), 2 h): 6.5
pH in solubility analysis ([2]; water (medium pH 6.6), 24 h): 6.4
Solubility ([2]; water, 0.5 h, 37° C., target 5 mg/mL): <LOD/<LOD/
Solubility ([2]; water, 2 h, 37° C., target 5 mg/mL): <LOD/<LOD/
Solubility ([2]; water, 24 h, 37° C., target 5 mg/mL): <LOD
Solubility ([3]; 2-methyltetrahydrofuran, organic solvent or mixture, thermodynamic from solid, 2-methyltetrahydrofuran, read-out: Solubility): > 50000 µg/mL
Solubility ([3]; 2-methyltetrahydrofuran, listed as starting material): 50000 to 100000 µg/mL
Solubility ([3]; acetone, organic solvent or mixture, thermodynamic from solid, acetone, read-out: Solubility): 20000 to 50000 µg/mL (≈ 36.1 to 90.3 mM)
Solubility ([3]; acetonitrile, organic solvent or mixture, thermodynamic from solid, acetonitrile, read-out: Solubility): 1000 to 5000 µg/mL (≈ 1.81 to 9.03 mM)
Solubility ([3]; acetonitrile/water, 19/1 (v/v), organic solvent or mixture, thermodynamic from solid, acetonitrile/water, 19/1 (v/v), read-out: Solubility): 3000 to 5000 µg/mL (≈ 5.42 to 9.03 mM)
Solubility ([3]; butanone, organic solvent or mixture, thermodynamic from solid, butanone, read-out: Solubility): > 50000 µg/mL
Solubility ([3]; butanone, listed as starting material): 50000 to 100000 µg/mL
Solubility ([3]; dichloromethane, organic solvent or mixture, thermodynamic from solid, dichloromethane, read-out: Solubility): 3000 to 5000 µg/mL (≈ 5.42 to 9.03 mM)
Solubility ([3]; ethanol, organic solvent or mixture, thermodynamic from solid, ethanol, read-out: Solubility): 5000 to 20000 µg/mL (≈ 9.03 to 36.1 mM)
Solubility ([3]; ethyl acetate, organic solvent or mixture, thermodynamic from solid, ethyl acetate, read-out: Solubility): 5000 to 20000 µg/mL (≈ 9.03 to 36.1 mM)
Solubility ([3]; isopropanol, organic solvent or mixture, thermodynamic from solid, isopropanol, read-out: Solubility): 20000 to 50000 µg/mL (≈ 36.1 to 90.3 mM)
Solubility ([3]; isopropyl acetate, organic solvent or mixture, thermodynamic from solid, isopropyl acetate, read-out: Solubility): 5000 to 20000 µg/mL (≈ 9.03 to 36.1 mM)
Solubility ([3]; methanol, organic solvent or mixture, thermodynamic from solid, methanol, read-out: Solubility): 3000 to 5000 µg/mL (≈ 5.42 to 9.03 mM)
Solubility ([3]; methyl isobutyl ketone, organic solvent or mixture, thermodynamic from solid, methyl isobutyl ketone, read-out: Solubility): 5000 to 20000 µg/mL (≈ 9.03 to 36.1 mM)
Solubility ([3]; methyl tert-butyl ether, organic solvent or mixture, thermodynamic from solid, methyl tert-butyl ether, read-out: Solubility): 2000 to 5000 µg/mL (≈ 3.61 to 9.03 mM)
Solubility ([3]; n-heptane, organic solvent or mixture, thermodynamic from solid, n-heptane, read-out: Solubility): < 1000 µg/mL
Solubility ([3]; n-heptane, listed as starting material): <1000 µg/mL
Solubility ([3]; tetrahydrofuran, organic solvent or mixture, thermodynamic from solid, tetrahydrofuran, read-out: Solubility): > 50000 µg/mL
Solubility ([3]; tetrahydrofuran, listed as starting material): >100000 µg/mL
Solubility ([3]; toluene, organic solvent or mixture, thermodynamic from solid, toluene, read-out: Solubility): < 1000 µg/mL
Solubility ([3]; toluene, listed as starting material): <1000 µg/mL
Solubility ([3]; water, thermodynamic from solid, water, read-out: Solubility): < 1000 µg/mL
Solubility ([3]; water, listed as starting material): <1000 µg/mL
Purity in stability evaluation ([4]; 0 d): 98.63 Area %
Solid state stability-14 days ([4]; 60° C./Closed and 40° C./75% RH (Open), 14 days): physically and chemically stable
Purity in stability evaluation ([4]; 7 d-40° C./75% RH): 98.60 Area %
XRPD in stability evaluation ([4]; 7 d-40° C./75% RH): unchanged
Purity in stability evaluation ([4]; 7 d-60° C./capped): 98.61 Area %
XRPD in stability evaluation ([4]; 7 d-60° C./capped): unchanged
Purity in stability evaluation ([4]; 14 d-40° C./75% RH): 98.61 Area %
XRPD in stability evaluation ([4]; 14 d-40° C./75% RH): unchanged
Purity in stability evaluation ([4]; 14 d-60° C./capped): 98.70 Area %
XRPD in stability evaluation ([4]; 14 d-60° C./capped): unchanged
crystalline form after DVS analysis (XRPD) [5]: remained unchanged
hygroscopicity (DVS) [5]: slightly hygroscopic
DVS The weight gains by vapor sorption % ([5]; 80% RH): 0.8%
DVS The weight gains by vapor sorption % ([5]; 90% RH): 0.9%
DVS The weight gains by vapor sorption % ([5]; 90% RH, listed as free base crystalline form I): ~0.9%
SMILES: Cc1c(C#Cc2cnc3ccc(N4CCC(O)CC4)nn23)cccc1C(=O)Nc1cc(Cl)cc(C(F)(F)F)c1 [Free base crystalline form I]
Solid form of residual solids in solubility analysis ([2]; summary over water, SGF, FaSSIF, FeSSIF): remained unchanged in water, FaSSIF and FeSSIF

XPRD Results after short-term physical stability [1]: unchanged
hygroscopicity (DVS) [5]: slightly hygroscopic
DVS The weight gains by vapor sorption % ([5]; 80% RH): 0.8%
DVS The weight gains by vapor sorption % ([5]; 90% RH): 1.2%
SMILES: Cc1c(C#Cc2cnc3ccc(N4CCC(O)CC4)nn23)cccc1C(=O)Nc1cc(Cl)cc(C(F)(F)F)c1 [L-camphor sulfonate crystalline form II]

Source: patent US20260226060A1, “SALTS AND CRYSTALLINE FORMS OF COMPOUND A, METHODS OF PREPARATION, AND USES THEREOF” (SHENZHEN NEWDEL BIOTECH CO., LTD., priority 2023, published 2026)
